# Measurements reported in PubChem BioAssay (NCI).
#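 How tested: cells in 96-well plates exposed to compound for 48 hours at five concentrations. The concentration for full growth arrest is given as TGI.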
# Tested on: TK-10 renal
# Test: DTP human tumour cell line panel, 48 h
row,SMILES,TGI [µM]
1,Clc1ccc(/C(=C\c2ccccc2)Cn2ccnc2)cc1,> 100
2,CCOC(=O)NC(Nc1c(F)c(F)c(F)c(F)c1F)(C(F)(F)F)C(F)(F)F,> 100
3,COC(=O)N1N=C(c2ccccc2)C1c1ccccc1 (stereo unspecified),> 100
4,O=C1c2cccc(O)c2C(=O)c2c(OC3OC(CO)C(O)C(O)C3O)cccc21 (stereo unspecified),> 100

# Tested on: COLO 205 colon
# Test: DTP human tumour cell line panel, 48 h
row,SMILES,TGI [µM]
1,Clc1ccc(/C(=C\c2ccccc2)Cn2ccnc2)cc1,28.6
2,CCOC(=O)NC(Nc1c(F)c(F)c(F)c(F)c1F)(C(F)(F)F)C(F)(F)F,> 100
3,COC(=O)N1N=C(c2ccccc2)C1c1ccccc1 (stereo unspecified),> 100
4,O=C1c2cccc(O)c2C(=O)c2c(OC3OC(CO)C(O)C(O)C3O)cccc21 (stereo unspecified),39.2

# Tested on: HS 578T breast
# Test: DTP human tumour cell line panel, 48 h
row,SMILES,TGI [µM]
1,Clc1ccc(/C(=C\c2ccccc2)Cn2ccnc2)cc1,> 100
2,CCOC(=O)NC(Nc1c(F)c(F)c(F)c(F)c1F)(C(F)(F)F)C(F)(F)F,> 100
3,COC(=O)N1N=C(c2ccccc2)C1c1ccccc1 (stereo unspecified),> 100
4,O=C1c2cccc(O)c2C(=O)c2c(OC3OC(CO)C(O)C(O)C3O)cccc21 (stereo unspecified),58.1

# Tested on: MOLT-4 leukemia
# Test: DTP human tumour cell line panel, 48 h
row,SMILES,TGI [µM]
1,Clc1ccc(/C(=C\c2ccccc2)Cn2ccnc2)cc1,> 100
2,CCOC(=O)NC(Nc1c(F)c(F)c(F)c(F)c1F)(C(F)(F)F)C(F)(F)F,> 100
3,COC(=O)N1N=C(c2ccccc2)C1c1ccccc1 (stereo unspecified),> 100

# Tested on: MDA-MB-231 breast
# Test: DTP human tumour cell line panel, 48 h
row,SMILES,TGI [µM]
1,Clc1ccc(/C(=C\c2ccccc2)Cn2ccnc2)cc1,26.8
2,CCOC(=O)NC(Nc1c(F)c(F)c(F)c(F)c1F)(C(F)(F)F)C(F)(F)F,> 100
3,COC(=O)N1N=C(c2ccccc2)C1c1ccccc1 (stereo unspecified),> 100
4,O=C1c2cccc(O)c2C(=O)c2c(OC3OC(CO)C(O)C(O)C3O)cccc21 (stereo unspecified),> 100

# Tested on: MCF7 breast
# Test: DTP human tumour cell line panel, 48 h
row,SMILES,TGI [µM]
1,Clc1ccc(/C(=C\c2ccccc2)Cn2ccnc2)cc1,44.5
2,CCOC(=O)NC(Nc1c(F)c(F)c(F)c(F)c1F)(C(F)(F)F)C(F)(F)F,> 100
3,COC(=O)N1N=C(c2ccccc2)C1c1ccccc1 (stereo unspecified),> 100
4,O=C1c2cccc(O)c2C(=O)c2c(OC3OC(CO)C(O)C(O)C3O)cccc21 (stereo unspecified),> 100

# Tested on: DU-145 prostate
# Test: DTP human tumour cell line panel, 48 h
row,SMILES,TGI [µM]
1,Clc1ccc(/C(=C\c2ccccc2)Cn2ccnc2)cc1,58.3
2,CCOC(=O)NC(Nc1c(F)c(F)c(F)c(F)c1F)(C(F)(F)F)C(F)(F)F,> 100
3,COC(=O)N1N=C(c2ccccc2)C1c1ccccc1 (stereo unspecified),> 100
4,O=C1c2cccc(O)c2C(=O)c2c(OC3OC(CO)C(O)C(O)C3O)cccc21 (stereo unspecified),> 100

# Tested on: OVCAR-4 ovarian
# Test: DTP human tumour cell line panel, 48 h
row,SMILES,TGI [µM]
1,Clc1ccc(/C(=C\c2ccccc2)Cn2ccnc2)cc1,> 100
2,COC(=O)N1N=C(c2ccccc2)C1c1ccccc1 (stereo unspecified),> 100
3,O=C1c2cccc(O)c2C(=O)c2c(OC3OC(CO)C(O)C(O)C3O)cccc21 (stereo unspecified),32.1

# Tested on: A549 NSCLC
# Test: DTP human tumour cell line panel, 48 h
row,SMILES,TGI [µM]
1,Clc1ccc(/C(=C\c2ccccc2)Cn2ccnc2)cc1,49.4
2,CCOC(=O)NC(Nc1c(F)c(F)c(F)c(F)c1F)(C(F)(F)F)C(F)(F)F,> 100
3,COC(=O)N1N=C(c2ccccc2)C1c1ccccc1 (stereo unspecified),> 100
4,O=C1c2cccc(O)c2C(=O)c2c(OC3OC(CO)C(O)C(O)C3O)cccc21 (stereo unspecified),> 100

# Tested on: NCI/ADR-RES ovarian
# Test: DTP human tumour cell line panel, 48 h
row,SMILES,TGI [µM]
1,Clc1ccc(/C(=C\c2ccccc2)Cn2ccnc2)cc1,38
2,CCOC(=O)NC(Nc1c(F)c(F)c(F)c(F)c1F)(C(F)(F)F)C(F)(F)F,> 100
3,COC(=O)N1N=C(c2ccccc2)C1c1ccccc1 (stereo unspecified),69.2
4,O=C1c2cccc(O)c2C(=O)c2c(OC3OC(CO)C(O)C(O)C3O)cccc21 (stereo unspecified),68.4

# Tested on: CCRF-CEM leukemia
# Test: DTP human tumour cell line panel, 48 h
row,SMILES,TGI [µM]
1,Clc1ccc(/C(=C\c2ccccc2)Cn2ccnc2)cc1,> 100
2,CCOC(=O)NC(Nc1c(F)c(F)c(F)c(F)c1F)(C(F)(F)F)C(F)(F)F,> 100
3,COC(=O)N1N=C(c2ccccc2)C1c1ccccc1 (stereo unspecified),> 100

# Tested on: CAKI-1 renal
# Test: DTP human tumour cell line panel, 48 h
row,SMILES,TGI [µM]
1,Clc1ccc(/C(=C\c2ccccc2)Cn2ccnc2)cc1,30.1
2,CCOC(=O)NC(Nc1c(F)c(F)c(F)c(F)c1F)(C(F)(F)F)C(F)(F)F,> 100
3,COC(=O)N1N=C(c2ccccc2)C1c1ccccc1 (stereo unspecified),> 100
4,O=C1c2cccc(O)c2C(=O)c2c(OC3OC(CO)C(O)C(O)C3O)cccc21 (stereo unspecified),> 100

# Tested on: HL-60(TB) leukemia
# Test: DTP human tumour cell line panel, 48 h
row,SMILES,TGI [µM]
1,Clc1ccc(/C(=C\c2ccccc2)Cn2ccnc2)cc1,45.5
2,CCOC(=O)NC(Nc1c(F)c(F)c(F)c(F)c1F)(C(F)(F)F)C(F)(F)F,> 100
3,COC(=O)N1N=C(c2ccccc2)C1c1ccccc1 (stereo unspecified),> 100

# Tested on: OVCAR-3 ovarian
# Test: DTP human tumour cell line panel, 48 h
row,SMILES,TGI [µM]
1,CCOC(=O)NC(Nc1c(F)c(F)c(F)c(F)c1F)(C(F)(F)F)C(F)(F)F,> 100
2,COC(=O)N1N=C(c2ccccc2)C1c1ccccc1 (stereo unspecified),> 100
3,O=C1c2cccc(O)c2C(=O)c2c(OC3OC(CO)C(O)C(O)C3O)cccc21 (stereo unspecified),> 100

# Tested on: SR leukemia
# Test: DTP human tumour cell line panel, 48 h
row,SMILES,TGI [µM]
1,Clc1ccc(/C(=C\c2ccccc2)Cn2ccnc2)cc1,> 100
2,CCOC(=O)NC(Nc1c(F)c(F)c(F)c(F)c1F)(C(F)(F)F)C(F)(F)F,> 100
3,COC(=O)N1N=C(c2ccccc2)C1c1ccccc1 (stereo unspecified),> 100
4,O=C1c2cccc(O)c2C(=O)c2c(OC3OC(CO)C(O)C(O)C3O)cccc21 (stereo unspecified),> 100

# Tested on: NCI-H226 lung
# Test: DTP human tumour cell line panel, 48 h
row,SMILES,TGI [µM]
1,Clc1ccc(/C(=C\c2ccccc2)Cn2ccnc2)cc1,33.1
2,CCOC(=O)NC(Nc1c(F)c(F)c(F)c(F)c1F)(C(F)(F)F)C(F)(F)F,> 100
3,COC(=O)N1N=C(c2ccccc2)C1c1ccccc1 (stereo unspecified),77.1
4,O=C1c2cccc(O)c2C(=O)c2c(OC3OC(CO)C(O)C(O)C3O)cccc21 (stereo unspecified),> 100

# Tested on: LOX IMVI melanoma
# Test: DTP human tumour cell line panel, 48 h
row,SMILES,TGI [µM]
1,Clc1ccc(/C(=C\c2ccccc2)Cn2ccnc2)cc1,22.9
2,CCOC(=O)NC(Nc1c(F)c(F)c(F)c(F)c1F)(C(F)(F)F)C(F)(F)F,> 100
3,COC(=O)N1N=C(c2ccccc2)C1c1ccccc1 (stereo unspecified),82.8
4,O=C1c2cccc(O)c2C(=O)c2c(OC3OC(CO)C(O)C(O)C3O)cccc21 (stereo unspecified),> 100

# Tested on: RPMI-8226 leukemia
# Test: DTP human tumour cell line panel, 48 h
row,SMILES,TGI [µM]
1,Clc1ccc(/C(=C\c2ccccc2)Cn2ccnc2)cc1,73.7
2,CCOC(=O)NC(Nc1c(F)c(F)c(F)c(F)c1F)(C(F)(F)F)C(F)(F)F,> 100
3,COC(=O)N1N=C(c2ccccc2)C1c1ccccc1 (stereo unspecified),> 100
4,O=C1c2cccc(O)c2C(=O)c2c(OC3OC(CO)C(O)C(O)C3O)cccc21 (stereo unspecified),> 100

# Tested on: HCT-116 colon
# Test: DTP human tumour cell line panel, 48 h
row,SMILES,TGI [µM]
1,Clc1ccc(/C(=C\c2ccccc2)Cn2ccnc2)cc1,29.1
2,CCOC(=O)NC(Nc1c(F)c(F)c(F)c(F)c1F)(C(F)(F)F)C(F)(F)F,> 100
3,COC(=O)N1N=C(c2ccccc2)C1c1ccccc1 (stereo unspecified),> 100
4,O=C1c2cccc(O)c2C(=O)c2c(OC3OC(CO)C(O)C(O)C3O)cccc21 (stereo unspecified),51

# Tested on: K-562 leukemia
# Test: DTP human tumour cell line panel, 48 h
row,SMILES,TGI [µM]
1,Clc1ccc(/C(=C\c2ccccc2)Cn2ccnc2)cc1,> 100
2,CCOC(=O)NC(Nc1c(F)c(F)c(F)c(F)c1F)(C(F)(F)F)C(F)(F)F,> 100
3,COC(=O)N1N=C(c2ccccc2)C1c1ccccc1 (stereo unspecified),72.7
4,O=C1c2cccc(O)c2C(=O)c2c(OC3OC(CO)C(O)C(O)C3O)cccc21 (stereo unspecified),> 100

# Tested on: OVCAR-8 ovarian
# Test: DTP human tumour cell line panel, 48 h
row,SMILES,TGI [µM]
1,Clc1ccc(/C(=C\c2ccccc2)Cn2ccnc2)cc1,33.4
2,CCOC(=O)NC(Nc1c(F)c(F)c(F)c(F)c1F)(C(F)(F)F)C(F)(F)F,> 100
3,COC(=O)N1N=C(c2ccccc2)C1c1ccccc1 (stereo unspecified),94
4,O=C1c2cccc(O)c2C(=O)c2c(OC3OC(CO)C(O)C(O)C3O)cccc21 (stereo unspecified),> 100

# Tested on: NCI-H23 lung
# Test: DTP human tumour cell line panel, 48 h
row,SMILES,TGI [µM]
1,Clc1ccc(/C(=C\c2ccccc2)Cn2ccnc2)cc1,> 100
2,CCOC(=O)NC(Nc1c(F)c(F)c(F)c(F)c1F)(C(F)(F)F)C(F)(F)F,> 100
3,COC(=O)N1N=C(c2ccccc2)C1c1ccccc1 (stereo unspecified),88
4,O=C1c2cccc(O)c2C(=O)c2c(OC3OC(CO)C(O)C(O)C3O)cccc21 (stereo unspecified),31.6

# Tested on: U251 CNS
# Test: DTP human tumour cell line panel, 48 h
row,SMILES,TGI [µM]
1,Clc1ccc(/C(=C\c2ccccc2)Cn2ccnc2)cc1,31.2
2,CCOC(=O)NC(Nc1c(F)c(F)c(F)c(F)c1F)(C(F)(F)F)C(F)(F)F,> 100
3,COC(=O)N1N=C(c2ccccc2)C1c1ccccc1 (stereo unspecified),> 100
4,O=C1c2cccc(O)c2C(=O)c2c(OC3OC(CO)C(O)C(O)C3O)cccc21 (stereo unspecified),> 100

# Tested on: M14 melanoma
# Test: DTP human tumour cell line panel, 48 h
row,SMILES,TGI [µM]
1,Clc1ccc(/C(=C\c2ccccc2)Cn2ccnc2)cc1,39.4
2,CCOC(=O)NC(Nc1c(F)c(F)c(F)c(F)c1F)(C(F)(F)F)C(F)(F)F,> 100
3,COC(=O)N1N=C(c2ccccc2)C1c1ccccc1 (stereo unspecified),> 100
4,O=C1c2cccc(O)c2C(=O)c2c(OC3OC(CO)C(O)C(O)C3O)cccc21 (stereo unspecified),51.3

# Tested on: HOP-92 NSCLC
# Test: DTP human tumour cell line panel, 48 h
row,SMILES,TGI [µM]
1,Clc1ccc(/C(=C\c2ccccc2)Cn2ccnc2)cc1,39.4
2,CCOC(=O)NC(Nc1c(F)c(F)c(F)c(F)c1F)(C(F)(F)F)C(F)(F)F,> 100
3,O=C1c2cccc(O)c2C(=O)c2c(OC3OC(CO)C(O)C(O)C3O)cccc21 (stereo unspecified),> 100

# Tested on: HCT-15 colon
# Test: DTP human tumour cell line panel, 48 h
row,SMILES,TGI [µM]
1,Clc1ccc(/C(=C\c2ccccc2)Cn2ccnc2)cc1,39.1
2,CCOC(=O)NC(Nc1c(F)c(F)c(F)c(F)c1F)(C(F)(F)F)C(F)(F)F,> 100
3,COC(=O)N1N=C(c2ccccc2)C1c1ccccc1 (stereo unspecified),> 100
4,O=C1c2cccc(O)c2C(=O)c2c(OC3OC(CO)C(O)C(O)C3O)cccc21 (stereo unspecified),94.9

# Tested on: KM12 colon
# Test: DTP human tumour cell line panel, 48 h
row,SMILES,TGI [µM]
1,Clc1ccc(/C(=C\c2ccccc2)Cn2ccnc2)cc1,20.7
2,CCOC(=O)NC(Nc1c(F)c(F)c(F)c(F)c1F)(C(F)(F)F)C(F)(F)F,> 100
3,COC(=O)N1N=C(c2ccccc2)C1c1ccccc1 (stereo unspecified),> 100
4,O=C1c2cccc(O)c2C(=O)c2c(OC3OC(CO)C(O)C(O)C3O)cccc21 (stereo unspecified),> 100

# Tested on: SN12C renal
# Test: DTP human tumour cell line panel, 48 h
row,SMILES,TGI [µM]
1,Clc1ccc(/C(=C\c2ccccc2)Cn2ccnc2)cc1,89.2
2,CCOC(=O)NC(Nc1c(F)c(F)c(F)c(F)c1F)(C(F)(F)F)C(F)(F)F,> 100
3,COC(=O)N1N=C(c2ccccc2)C1c1ccccc1 (stereo unspecified),> 100
4,O=C1c2cccc(O)c2C(=O)c2c(OC3OC(CO)C(O)C(O)C3O)cccc21 (stereo unspecified),> 100

# Tested on: SK-OV-3 ovarian
# Test: DTP human tumour cell line panel, 48 h
row,SMILES,TGI [µM]
1,Clc1ccc(/C(=C\c2ccccc2)Cn2ccnc2)cc1,36.3
2,CCOC(=O)NC(Nc1c(F)c(F)c(F)c(F)c1F)(C(F)(F)F)C(F)(F)F,> 100
3,COC(=O)N1N=C(c2ccccc2)C1c1ccccc1 (stereo unspecified),> 100
4,O=C1c2cccc(O)c2C(=O)c2c(OC3OC(CO)C(O)C(O)C3O)cccc21 (stereo unspecified),> 100

# Tested on: BT-549 breast
# Test: DTP human tumour cell line panel, 48 h
row,SMILES,TGI [µM]
1,Clc1ccc(/C(=C\c2ccccc2)Cn2ccnc2)cc1,38
